According to article PMC12040169 (PLOS Biology, 2025):

assay: in vitro; settings: human, hela cells

Q: For `CN(C)C(=O)Oc1ccc2[nH]c3c(c2c1)CCNC31CCN(CCOc2ccccc2)C1` (centres unmarked) [CBK107679], which viability at 28.5 h, 10 µM is on record?
A: 95.1%

same assay, conditions: human, hela cells, % viability

Q: With `Cc1ccccc1NC(=O)c1ccc(Br)o1` [CBK107152] as the compound, how does the viability at 28.5 h, 10 µM read?
A: 88.2%

Q: Which viability at 28.5 h, 10 µM does the source give for `CC(C)Nc1cc(SC2CCCCC2)ncn1` [CBK107163] here?
A: 92.4%

Q: With `CNC(=O)CSc1nc2ccccc2nc1NC(C)C` [CBK107171] as the compound, how does the viability at 28.5 h, 10 µM read?
A: 99.7%

Q: For `CCOC(=O)CSc1nc2cc(Cl)c(Cl)cc2nc1NC(C)C` [CBK107173], which viability at 28.5 h, 10 µM is on record?
A: 97.1%

Q: With `FC(F)(F)c1cccc(CSc2nccnc2N2CCCC2)c1` [CBK107178] as the compound, how does the viability at 28.5 h, 10 µM read?
A: 94.7%

Q: With `FC(F)(F)c1cccc(CSc2nc3ccccc3nc2N2CCCC2)c1` [CBK107190] as the compound, how does the viability at 28.5 h, 10 µM read?
A: 91.5%

Q: With `FC(F)(F)c1cccc(SCc2ccc(Cl)cc2)n1` [CBK107197] as the compound, how does the viability at 28.5 h, 10 µM read?
A: 91.9%

Q: Which viability at 28.5 h, 10 µM does the source give for `Fc1ccc(CSc2nc3ccccc3nc2C(F)(F)F)cc1` [CBK107199] here?
A: 98.6%

Q: With `CCOC(=O)CSc1nc2ccccc2nc1C(F)(F)F` [CBK107200] as the compound, how does the viability at 28.5 h, 10 µM read?
A: 92.8%

Q: For `FC(F)(F)c1nc2ccccc2nc1SCc1ccco1` [CBK107201], which viability at 28.5 h, 10 µM is on record?
A: 85.9%

Q: For `FC(F)(F)c1nc2ccccc2nc1SCCc1ccccc1` [CBK107204], which viability at 28.5 h, 10 µM is on record?
A: 90.3%

Q: For `Cc1ccccc1S(=O)(=O)Nc1cc(CN2C[C@H](C)NC[C@H]2C)c2occc2c1` [CBK107210T], which viability at 28.5 h, 10 µM is on record?
A: 108%

Q: Which viability at 28.5 h, 10 µM does the source give for `O=C(NCc1ccccn1)c1ccccc1Nc1cccc(C(F)(F)F)c1` [CBK107252] here?
A: 86.3%

Q: With `O=C(NCCN1CCCC1)c1cc2cc(Cl)ccc2[nH]1` [CBK107267] as the compound, how does the viability at 28.5 h, 10 µM read?
A: 88%

Q: For `O=C(Nc1cccnc1)c1cc2cc(F)ccc2[nH]1` [CBK107272], which viability at 28.5 h, 10 µM is on record?
A: 93.2%

Q: For `O=C(NCc1ccccn1)c1cc2cc(F)ccc2[nH]1` [CBK107276], which viability at 28.5 h, 10 µM is on record?
A: 102%

Q: Which viability at 28.5 h, 10 µM does the source give for `O=C(c1cc2cc(F)ccc2[nH]1)N1CCN(c2ncccn2)CC1` [CBK107280] here?
A: 91.8%

Q: Which viability at 28.5 h, 10 µM does the source give for `CC(C)(C)c1cc(C(=O)Nc2ccncc2)n(Cc2ccc(Cl)cc2Cl)n1` [CBK107284] here?
A: 107%

Q: For `CC(C)(C)c1cc(C(=O)N2CCN(c3ncccn3)CC2)n(Cc2ccc(Cl)cc2Cl)n1` [CBK107294], which viability at 28.5 h, 10 µM is on record?
A: 105%

Q: Which viability at 28.5 h, 10 µM does the source give for `O=C(Cc1csc(-c2ccc(Cl)cc2)n1)Nc1cccnc1` [CBK107300] here?
A: 101%

Q: With `O=C(Nc1cccnc1)c1cc2cc(OC(F)(F)F)ccc2[nH]1` [CBK107313] as the compound, how does the viability at 28.5 h, 10 µM read?
A: 95.1%

Q: For `O=C(Nc1ccncc1)c1cc2cc(Cl)ccc2[nH]1` [CBK107340], which viability at 28.5 h, 10 µM is on record?
A: 95%

Q: With `O=C(c1cc2cc(Cl)ccc2[nH]1)N1CCN(c2ccccn2)CC1` [CBK107343] as the compound, how does the viability at 28.5 h, 10 µM read?
A: 93.7%

Q: For `NCCNC(=O)c1cc2cc(F)ccc2[nH]1` [CBK107345], which viability at 28.5 h, 10 µM is on record?
A: 95.8%

Q: Which viability at 28.5 h, 10 µM does the source give for `O=C(Nc1ccncc1)c1cc2cc(F)ccc2[nH]1` [CBK107346] here?
A: 103%

Q: For `CN(C)CCCNC(=O)c1cnc2cc(Cl)ccc2c1O` [CBK107354], which viability at 28.5 h, 10 µM is on record?
A: 94.4%

Q: Which viability at 28.5 h, 10 µM does the source give for `O=C(c1cnc2cc(Cl)ccc2c1O)N1CCN(c2ncccn2)CC1` [CBK107358] here?
A: 108%

Q: Which viability at 28.5 h, 10 µM does the source give for `CC(C)(C)c1cc(C(=O)Nc2ccccn2)n(Cc2ccc(Cl)cc2Cl)n1` [CBK107361] here?
A: 89.6%

Q: Which viability at 28.5 h, 10 µM does the source give for `O=C(Cc1csc(-c2ccc(Cl)cc2)n1)Nc1ccccn1` [CBK107364] here?
A: 85.8%

Q: For `CCCc1c(C(=O)NCCCN(C)C)cnn1-c1cc(Cl)cc(Cl)c1` [CBK107376], which viability at 28.5 h, 10 µM is on record?
A: 89.3%

Q: For `CCCc1c(C(=O)N2CCN(c3ncccn3)CC2)cnn1-c1cc(Cl)cc(Cl)c1` [CBK107383], which viability at 28.5 h, 10 µM is on record?
A: 102%

Q: Which viability at 28.5 h, 10 µM does the source give for `Cc1c(C(=O)Nc2cccnc2)nnn1-c1cccc(C(F)(F)F)c1` [CBK107389] here?
A: 97.1%

Q: Which viability at 28.5 h, 10 µM does the source give for `Cc1c(C(=O)NCc2ccccn2)nnn1-c1cccc(C(F)(F)F)c1` [CBK107395] here?
A: 92.9%

Q: For `O=C(Nc1cccnc1)c1cc(C(=O)c2ccc(Cl)cc2Cl)c[nH]1` [CBK107406], which viability at 28.5 h, 10 µM is on record?
A: 93.7%

Q: With `O=C(c1c[nH]c(C(=O)N2CCN(c3ccccn3)CC2)c1)c1ccc(Cl)cc1Cl` [CBK107419] as the compound, how does the viability at 28.5 h, 10 µM read?
A: 86.5%

Q: Which viability at 28.5 h, 10 µM does the source give for `O=C(NCCN1CCCC1)c1cnc2cc(C(F)(F)F)ccc2c1O` [CBK107426] here?
A: 104%

Q: Which viability at 28.5 h, 10 µM does the source give for `O=C(c1cnc2cc(C(F)(F)F)ccc2c1O)N1CCN(c2ccccn2)CC1` [CBK107431] here?
A: 94.8%

Q: Which viability at 28.5 h, 10 µM does the source give for `COc1ccc(Nc2cc(Cl)ccc2C(=O)NC(C)(C)CN2CCOCC2)cn1` [CBK107436] here?
A: 97.1%

Q: With `O=C(Nc1ccccn1)c1cnn(-c2ccc(Cl)cc2)c1C(F)(F)F` [CBK107442] as the compound, how does the viability at 28.5 h, 10 µM read?
A: 92.2%

Q: For `O=C(c1cnn(-c2ccc(Cl)cc2)c1C(F)(F)F)N1CCN(c2ncccn2)CC1` [CBK107448], which viability at 28.5 h, 10 µM is on record?
A: 98%

Q: For `NCCCNC(=O)c1ccc(-c2cccc(C(F)(F)F)c2)o1` [CBK107454], which viability at 28.5 h, 10 µM is on record?
A: 89.4%

Q: For `O=C(Nc1cccnc1)c1cnc2cc(C(F)(F)F)ccc2c1O` [CBK107474], which viability at 28.5 h, 10 µM is on record?
A: 77.8%

Q: Which viability at 28.5 h, 10 µM does the source give for `CCn1c(SCC(=O)Nc2ccc([N+](=O)[O-])cc2)nnc1C(NC(=O)c1ccccc1)C(C)C` (centres unmarked) [CBK107508] here?
A: 94.9%

Q: Which viability at 28.5 h, 10 µM does the source give for `CN(C)c1cccc(NC(=O)Nc2ncc(Br)c3cccnc23)c1` [CBK107633] here?
A: 94%

Q: For `O=C(Nc1ccc(OC(F)F)cc1)Nc1ncc(Br)c2cccnc12` [CBK107635], which viability at 28.5 h, 10 µM is on record?
A: 115%

Q: For `O=C(Nc1ccc2oc(-c3cccnc3)nc2c1)c1ccc(-c2ccc(OC(F)(F)F)cc2)o1` [CBK107713], which viability at 28.5 h, 10 µM is on record?
A: 101%

Q: For `CNC(=O)CSc1nccc(C(F)(F)F)n1` [CBK107759], which viability at 28.5 h, 10 µM is on record?
A: 101%

Q: Which viability at 28.5 h, 10 µM does the source give for `CNCc1cc(Br)c(OCC(=O)Nc2ccccc2OC)c(OC)c1` [CBK107772] here?
A: 106%

Q: For `NC1=C2NN(c3ccc(Cl)cc3Cl)N=C2N(c2ccccc2)N1` [CBK107773], which viability at 28.5 h, 10 µM is on record?
A: 98.1%

Q: With `Clc1ccccc1OCCNC1CCc2[nH]c3ccccc3c2C1` (centres unmarked) [CBK107790] as the compound, how does the viability at 28.5 h, 10 µM read?
A: 107%

Q: With `Fc1ccc(OCCNC2CCc3[nH]c4ccccc4c3C2)cc1` (centres unmarked) [CBK107791] as the compound, how does the viability at 28.5 h, 10 µM read?
A: 83.7%

Q: With `COC(=O)CCCN1CCCC12CCc1[nH]c3ccccc3c1C2` (centres unmarked) [CBK107798T] as the compound, how does the viability at 28.5 h, 10 µM read?
A: 95.6%

Q: With `Oc1ccc(-c2cncc(Nc3cccc(Br)c3)n2)cc1` [CBK107803] as the compound, how does the viability at 28.5 h, 10 µM read?
A: 84.8%

Q: With `CCCc1cc(-c2c(Cl)cccc2Cl)[nH]n1` [CBK107818] as the compound, how does the viability at 28.5 h, 10 µM read?
A: 91.2%

Q: For `O=C(NC1CCCCCC1)c1[nH]nc(O)c1Cc1c(Cl)cccc1Cl` [CBK107847], which viability at 28.5 h, 10 µM is on record?
A: 91.9%

Q: With `COc1ccc(CCCC(=O)Nc2cc(N3CCNCC3)ncn2)cc1OC` [CBK107856] as the compound, how does the viability at 28.5 h, 10 µM read?
A: 93.9%

Q: With `CC(C)Nc1nc2ccccc2nc1SCCC(=O)O` [CBK107858] as the compound, how does the viability at 28.5 h, 10 µM read?
A: 106%

Q: Which viability at 28.5 h, 10 µM does the source give for `O=C(O)CCSc1nc2ccccc2nc1N1CCCC1` [CBK107862] here?
A: 95.7%

Q: Which viability at 28.5 h, 10 µM does the source give for `O=C(O)CSc1nc2cc(Cl)c(Cl)cc2nc1N1CCCC1` [CBK107863] here?
A: 92.9%

same assay, conditions: human, hela cells, % viability, bulk resorufin, single well

Q: With `Cc1nc(C)c(C(=O)Nc2ccccc2-c2ccc3c(c2)COC2(CCNCC2)O3)s1` [CBK107628] as the compound, how does the viability at 28.5 h, 10 µM read?
A: 96.8%

Q: Which viability at 28.5 h, 10 µM does the source give for `CC(C)(C)OC(=O)N1CCC2(CC1)OCc1cc(-c3cccc(C(=O)O)c3)ccc1O2` [CBK107809] here?
A: 87.5%

Q: With `COc1ccc(C(C)NC(=O)c2cccc(-c3ccc4c(c3)COC3(CCN(C(=O)OC(C)(C)C)CC3)O4)c2)cc1` (centres unmarked) [CBK107833] as the compound, how does the viability at 28.5 h, 10 µM read?
A: 100%

Q: For `CC(C)(C)OC(=O)N1CCC2(CC1)OCc1cc(-c3cccc(C(=O)NCc4ccc(Cl)cc4)c3)ccc1O2` [CBK107834], which viability at 28.5 h, 10 µM is on record?
A: 93.3%

Q: With `O=C(Cc1ccc(Cl)c(Cl)c1)Nc1ccccc1-c1ccc2c(c1)COC1(CCNCC1)O2` [CBK107890] as the compound, how does the viability at 28.5 h, 10 µM read?
A: 100%
